Laboratory results reported in PMC4138103 (PLoS ONE, 2014).
Read-outs that look alike come from different tables or passages of the source.

Columns and labels:
Sprague-Dawley rats = assay: Liver p53 and DNA damage markers, Western blotting; type: in vivo, Rattus norvegicus; conditions: for Emax: Rattus norvegicus
Protocol: Liver p53, Mdm2 and DNA damage related markers were assessed by Western blotting analysis. Proteins of the liver homogenates were quantified using Coomassie Plus Protein Assay Reagent (Pierce, Täby, Sweden). The samples were subjected to SDS-PAGE, the separated proteins were transferred to a polyvinylidene difluoride membrane (Bio-Rad, Hercules, CA, USA) and blocked in 10% non-fatty milk for 1 h. The protein bands were subsequently probed with antibodies overnight at 4°C.
The primary antibody for total p53 DO-1 was purchased from Novocastra (Newcastle, UK). Primary antibodies for DNA-damage marker were phospho-p53 (Ser-15), phospho-Chk2 (Thr-68), phospho-Mdm2 (Ser-166), phospho-Akt (Ser-473) (Cell Signaling Technology, Stockholm, Sweden) phospho-Erk (Tyr-204) (E-4) and the loading control Cdk2 (M2) (sc-7383 resp. sc-163, Santa Cruz Biotechnology, Santa Cruz, CA, USA). Secondary antibodies used were goat anti-rabbit IgG, goat anti-mouse IgG (sc-2004 resp. sc-2005, Santa Cruz Biotechnology). No signals were obtained when primary antibodies were omitted. […]. The results were visualized by the ECL or ECL plus detection kits (Amersham GE Healthcare Bio-sciences AB, Uppsala, Sweden). Cdk2 was used as a loading control.
Data were also analyzed using the BMD method, which is based on dose-response modeling of the full data set using a nested family of exponential and Hill models. The analyses were done on data of males and females combined, using sex as a covariate. […] In that case, different Critical Effect Doses (CEDs) and CEDs at the lowest bound of the confidence interval (CED-L) were generated for each sex. If no difference between sexes is detected, a CED and CED-Ls for the combined data is generated. However, this was also done if the curve fits are close, and separate analyses for males and females were then performed manually. […]

[1] = system: Nicotinic receptor subunits α4 and β2; assay: Brain [3H]epibatidin binding in exposed rats; type: in vivo, Rattus norvegicus; conditions: males
Protocol: The membrane containing pellet was homogenized in 15 volumes of 50 mM Tris-HCl buffer at pH 7.4, incubated at 25°C for 30 min, and centrifuged again at 100 000 g. The pellet from the second centrifugation was dissolved in 4 ml 0.32 M sucrose/g brain (v/w), with a final protein concentration of […] and frozen at −40°C.
Nicotinic receptor subunits α4 and β2 were analyzed as above with the following modifications: 8 µl (0.1 mg protein) of the same membrane preparation was incubated with 415–472 µl buffer (50 mM tris-HCL, pH 7.4), 0.1–1 nM [^3H]epibatidin and 0.1 mM (-)nicotine for measuring unspecific binding, to a final volume of 500 µl. […] The samples were incubated with [^3H]epibatidin for 1 h followed by vacuum filtration and scintillation counting.
Samples were vacuum filtrated trough Whatman glassfiber-filters (type GF/B, 25 mm) and washed 3×3 ml ice-cold incubation buffer. To reduce unspecific binding, the filters where pre-wetted in 1% polyetylenimine for 60 min. The filters were placed into a filtration bucket and coupled to a mechanical vacuum pump. After filtration the bucket was disassembled and the filters transferred into plastic tubes and 4 ml filtercount fluid was added. Radioactive binding was measured as disintegration per minute (DPM1) in a scintillation counter (Tri-Carb 3100TR, Perkin Elmer). The analyses were carried out in duplicates

[2] = rats; cited from earlier work
[3] = F, CES 5%, model E4, adipose tissue concentration based
[4] = F, CES 5%, model E5, adipose tissue concentration based
[5] = F, CES 100%, model E4, adipose tissue concentration based
[6] = F, CES 100%, model E5, adipose tissue concentration based
[7] = females, CES 5%, total dose based
[8] = females, CES 100%, adipose tissue concentration based
[9] = females, CES 100%, total dose based
[10] = females, adipose tissue concentration based
[11] = total dose 1000 mg/kg bw, group mean

Clc1cc(Cl)c(-c2cc(Cl)c(Cl)c(Cl)c2Cl)cc1Cl [PCB 180, 2,2′,3′,4,4′,5,5′-heptachlorobiphenyl]
CED, Liver p53 (Sprague-Dawley rats; [3]): 65.2 µg/g lipid | CED-L, Liver p53 (Sprague-Dawley rats; [3]): 30.0 µg/g lipid | CED, Liver p53 Ser15 (Sprague-Dawley rats; [4]): 361 µg/g lipid | CED, Liver pChk2 Thr68 (Sprague-Dawley rats; [4]): 337 µg/g lipid | CED-L, Liver p53 Ser15 (Sprague-Dawley rats; [4]): 124 µg/g lipid | CED-L, Liver pChk2 Thr68 (Sprague-Dawley rats; [4]): 98.2 µg/g lipid | CED, Liver p53 (Sprague-Dawley rats; [5]): 2240 µg/g lipid | CED-L, Liver p53 (Sprague-Dawley rats; [5]): 1053 µg/g lipid | CED, Liver p53 Ser15 (Sprague-Dawley rats; [6]): 438 µg/g lipid | CED, Liver pChk2 Thr68 (Sprague-Dawley rats; [6]): 382 µg/g lipid | CED-L, Liver p53 Ser15 (Sprague-Dawley rats; [6]): 411 µg/g lipid | CED-L, Liver pChk2 Thr68 (Sprague-Dawley rats; [6]): 165 µg/g lipid | Emax (Sprague-Dawley rats; F, model E4, controls vs high dose according to the fitted model, read-out: Maximum response, Liver p53): 141% | Emax (Sprague-Dawley rats; females, controls vs high dose, fitted model, read-out: Liver p53, Maximum response): 142% | Emax (Sprague-Dawley rats; females, controls vs high dose, fitted model, read-out: Liver p53 Ser15, Maximum response): 181% | Emax (Sprague-Dawley rats; females, controls vs high dose, fitted model, read-out: Liver pChk2 Thr68, Maximum response): 185% | Emax (Sprague-Dawley rats; F, model E5, controls vs high dose according to the fitted model, read-out: Maximum response, Liver p53 Ser15): 181% | Emax (Sprague-Dawley rats; F, model E5, controls vs high dose according to the fitted model, read-out: Maximum response, Liver pChk2 Thr68): 185% | Liver p53, CED (Sprague-Dawley rats; [7]): 14.1 mg/kg bw | Liver p53, CED-L (Sprague-Dawley rats; [7]): 5.89 mg/kg bw | Liver p53 Ser15, CED (Sprague-Dawley rats; [7]): 79.2 mg/kg bw | Liver p53 Ser15, CED-L (Sprague-Dawley rats; [7]): 19.5 mg/kg bw | Liver pChk2 Thr68, CED (Sprague-Dawley rats; [7]): 72.9 mg/kg bw | Liver pChk2 Thr68, CED-L (Sprague-Dawley rats; [7]): 31.5 mg/kg bw | Liver p53 Ser15, CED (100%) (Sprague-Dawley rats; [8]): 438 µg/g lipid | Liver pChk2 Thr68, CED (100%) (Sprague-Dawley rats; [8]): 382 µg/g lipid | Liver p53, CED (Sprague-Dawley rats; [9]): 472 mg/kg bw | Liver p53, CED-L (Sprague-Dawley rats; [9]): 210 mg/kg bw | Liver p53 Ser15, CED (Sprague-Dawley rats; [9]): 101 mg/kg bw | Liver p53 Ser15, CED-L (Sprague-Dawley rats; [9]): 93.0 mg/kg bw | Liver pChk2 Thr68, CED (Sprague-Dawley rats; [9]): 81.1 mg/kg bw | Liver pChk2 Thr68, CED-L (Sprague-Dawley rats; [9]): 41.8 mg/kg bw | Liver p53, CED (Sprague-Dawley rats; [10]): 2240 µg/g lipid | Liver p53, CED-L (Sprague-Dawley rats; [10]): 30000 ng/g lipid | Specific binding of [3H]epibatidin to high or low affinity sites of nicotinic receptor subunit α4/β2 vs controls ([1]; 1000 mg/kg bw): no significant difference | High affinity nicotinic receptor binding (α4/β2) [1, 11]: 656 DPM1 | Low affinity nicotinic receptor binding (α4/β2) [1, 11]: 1492 DPM1 | Elimination half-life [2]: 90 days
